In patent EP0494819B1, “Phenylimidazolidines, their process for fabrication, their application as medicaments and the pharmaceutical compositions containing them” (ROUSSEL UCLAF, priority 1991, dated 1992):

Columns and labels:
[1] = target: T1, récepteur androgène (Rattus norvegicus, UniProt P15207); test: Affinity for the androgen receptor: relative binding affinity (ARL), displacement of tritiated testosterone in prostate cytosol of castrated rats; set-up: species or system rats mâles Sprague Dawley EOPS; conditions: testosterone = 100, ARL=100 (CH)/(CX); for ARL (affinité relative de liaison), Incubation : 30 minutes: incubation 30 minutes at 0°C; for ARL (affinité relative de liaison), Incubation : 24 heures: incubation 24 hours at 0°C
T1 construct: Des aliquotes du surnageant obtenu (=cytosol), sont incubées 30 minutes et 24 heures à 0°C; from tissue; host or cells: prostate cytosol (105 000 g supernatant) of castrated male Sprague Dawley rats
T1 sequence (P15207 1-902): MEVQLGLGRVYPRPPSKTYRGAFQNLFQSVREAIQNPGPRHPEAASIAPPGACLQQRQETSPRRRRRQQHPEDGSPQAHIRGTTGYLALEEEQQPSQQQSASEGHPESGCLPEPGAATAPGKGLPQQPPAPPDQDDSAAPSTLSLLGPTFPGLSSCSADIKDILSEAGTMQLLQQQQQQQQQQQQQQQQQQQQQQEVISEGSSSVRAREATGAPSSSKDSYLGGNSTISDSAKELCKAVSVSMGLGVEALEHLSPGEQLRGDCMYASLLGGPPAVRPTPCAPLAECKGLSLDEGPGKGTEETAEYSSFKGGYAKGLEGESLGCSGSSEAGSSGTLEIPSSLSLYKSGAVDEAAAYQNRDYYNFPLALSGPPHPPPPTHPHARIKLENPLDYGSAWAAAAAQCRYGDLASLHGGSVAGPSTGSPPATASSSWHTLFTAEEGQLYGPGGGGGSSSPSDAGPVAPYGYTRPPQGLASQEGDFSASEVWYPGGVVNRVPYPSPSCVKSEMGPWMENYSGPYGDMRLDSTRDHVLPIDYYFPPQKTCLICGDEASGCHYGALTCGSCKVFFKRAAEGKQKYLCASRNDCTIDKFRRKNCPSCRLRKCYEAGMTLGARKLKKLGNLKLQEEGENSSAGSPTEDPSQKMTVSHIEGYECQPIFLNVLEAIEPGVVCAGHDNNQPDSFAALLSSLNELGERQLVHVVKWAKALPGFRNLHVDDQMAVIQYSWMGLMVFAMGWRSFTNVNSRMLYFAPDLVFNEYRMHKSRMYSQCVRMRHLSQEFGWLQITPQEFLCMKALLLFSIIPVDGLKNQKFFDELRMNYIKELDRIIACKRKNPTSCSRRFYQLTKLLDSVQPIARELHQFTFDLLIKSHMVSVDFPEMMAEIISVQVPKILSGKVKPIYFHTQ
Method: 1) Etude de l'affinité des produits de l'invention pour le récepteur androgène
Des rats mâles Sprague Dawley EOPS de 180-200 g, castrés de 24 heures, sont sacrifiés, les prostates prélevées, pesées et homogénéisées à 0°C à l'aide d'un potter verre-verre, dans une solution tamponnée (Tris 10mM, saccharose 0,25M, PMSF (phénylméthanesulfonylfluoride) 0,1mM, Molybdate de sodium 20mM, HCl pH 7,4; auxquels on ajoute extemporanément 2mM de DTT (DL dithiothreitol), à raison de 1 g de tissu pour 8 ml de tampon.
L'homogénat est ensuite ultracentrifugé à 0°C, 45 minutes à 105 000 g.
Calcul de l'affinité relative de liaison (ARL).
On trace les 2 courbes suivantes : le pourcentage de l'hormone tritiée liée B/T en fonction du logarithme de la concentration de l'hormone de référence froide et B/T en fonction du logarithme de la concentration du produit froid testé. On détermine la droite d'équation I50=(B/Tmax + B/Tmin)/2. B/T max= % de l'hormone tritiée liée pour une incubation de cette hormone tritiée à la concentration (T). B/T min= % de l'hormone tritiée liée pour une incubation de cette hormone tritiée à la concentration (T) en présence d'un grand excès d'hormone froide (2500.10^-9M).
Les intersections de la droite I50 et des courbes, permettent d'évaluer les concentrations de l'hormone de référence froide (CH) et du produit froid testé (CX) qui inhibent de 50 % la liaison de l'hormone tritiée sur le récepteur.

[2] = tested on: ornithine décarboxylase rénale; test: Androgen or anti-androgen activity by assay of renal ornithine decarboxylase in castrated mice, oral treatment; assay type: in vivo, souris mâles SWISS; conditions: kidneys taken 16 h after treatment; for Antagonisme (PO): with testosterone propionate 3 mg/kg s.c.
Method: 2) Détermination de l'activité androgène ou anti-androgène des produits de l'invention à l'aide du dosage de l'ornithine de carboxylase.
16 heures après les traitements, les animaux sont sacrifiés, les reins prélevés, puis homogénéisés à 0°C , à l'aide d'un broyeur téflon-verre dans 10 volumes de tampon Tris-HCl 50 mM (pH 7,4) contenant 250 uM de phosphate de pyridoxal, 0,1 mM EDTA, et 5 mM de dithiothreitol. L'homogenat est ensuite centrifugé à 105000 g pendant 45 mn.
A 37°C, l'ornithine décarboxylase rénale transforme un mélange isotopique d'ornithine froide et d'ornithine tritiée en putrescine froide et putrescine tritiée.
La putrescine est ensuite recueillie sur des papiers sélectifs, échangeurs d'ions. Après séchage, l'excès d'ornithine tritiée et froide non transformée est éliminé, par 3 lavages d'ammoniaque 0,1 M. Les papiers sont séchés, puis la radioactivité est comptée après addition de scintillant Aqualite.
Les résultats sont exprimés en fmoles ([…]) de putrescine tritiée formée/heure/mg de protéines.

Row | Compound | ARL (affinité relative de liaison), Incubation : 30 minutes [1] | ARL (affinité relative de liaison), Incubation : 24 heures [1] | Antagonisme (PO) ([2]; 3 mg/kg PO) | Antagonisme (PO) ([2]; 0,1 mg/kg PO) | Antagonisme (PO) ([2]; 0,3 mg/kg PO) | Antagonisme (PO) ([2]; 1 mg/kg PO) | Antagonisme (PO) ([2]; 10 mg/kg PO) | Angonisme (PO) ([2]; 10 mg/kg PO, without testosterone propionate)
1 | CN1C(=O)N(c2ccc([N+](=O)[O-])c(C(F)(F)F)c2)C(=O)C1(C)C [Produit de l'exemple 1, 1-(4-nitro-3-(trifluorométhyl)phényl)-3,4,4-triméthyl-2,5-imidazolidinedione] | 27,5 | 3 |  |  |  |  |  | 
2 | CCN1C(=O)N(c2ccc([N+](=O)[O-])c(C(F)(F)F)c2)C(=O)C1(C)C [Produit de l'exemple 2, 5,5-diméthyl-1-éthyl-3-(4-nitro-3-(trifluorométhyl)phényl)-2,4-imidazolidinedione] | 22 | 6 |  |  |  |  |  | 
3 | CC(C)N1C(=O)N(c2ccc([N+](=O)[O-])c(C(F)(F)F)c2)C(=O)C1(C)C [Produit de l'exemple 4, 5,5-diméthyl-1-(1-méthyl éthyl)-3-(4-nitro-3-(trifluorométhyl)phényl)-2,4-imidazolidinedione] | 21 | 5 |  |  |  |  |  | 
4 | CN1C(=S)N(c2ccc(C#N)c(C(F)(F)F)c2)C(=N)C1(C)C [Produit de l'exemple 11, 4-(5-imino-2-thioxo-3,4,4-triméthyl-1-imidazolidinyl)-2-(trifluorométhyl)-benzonitrile] | 28 | 8 | 3 mg/kg : 83% |  |  |  |  | 
5 | CN1C(=S)N(c2ccc(C#N)c(C(F)(F)F)c2)C(=O)C1(C)C [Produit de l'exemple 12, 4-(5-oxo-2-thioxo-3,4,4-triméthyl-1-imidazolidinyl)-2-(trifluorométhyl)-benzonitrile] | 128 | 92 | 3 mg/kg : 94% | 0,1 mg/kg : 12% | 0,3 mg/kg : 36% | 1 mg/kg : 68% | 10 mg/kg : 99% | 10 mg/kg : 0%
6 | CN1C(=S)N(c2ccc(C#N)c(C(F)(F)F)c2)C(=S)C1(C)C [Produit de l'exemple 13, 4-(2,5-dithioxo-3,4,4-triméthyl-1-imidazolidinyl)-2-(trifluorométhyl)-benzonitrile] | 31 | 39 |  |  |  |  |  | 
7 | CC1(C)NC(=S)N(c2ccc(C#N)c(C(F)(F)F)c2)C1=N [Produit de l'exemple 14, 4-(4,4-diméthyl-5-imino-2-thioxo-1-imidazolidinyl)-2-(trifluorométhyl)-benzonitrile] | 27 | 7 | 3 mg/kg : 87% |  |  |  |  | 
8 | CC1(C)NC(=S)N(c2ccc(C#N)c(C(F)(F)F)c2)C1=O [Produit de l'exemple 15, 4-(4,4-diméthyl-5-oxo-2-thioxo-1-imidazolidinyl)-2-(trifluorométhyl)-benzonitrile] | 69 | 24 |  |  | 0,3 mg/kg : 4% | 1 mg/kg : 82% |  | 
